The subject of data set [1] is HCC827 (EGFR mutation = exon19del). Nature of the data set: CellTiter-Glo cell viability assay. Particulars: 72 h, unadjusted for FBS. The data set is classed as cell-based, human. For orientation: Cellular ATP, detected with luciferase, serves as a proxy for viable cell number.
The next data set concerns the target T1, EGFR del E746_A750 (Homo sapiens, UniProt P00533, DEL746-750).
T1 construct: purchased Eurofins DiscoverX (contract assay)
Nature of the data set: KINOMEScan KdELECT Kd determination. The data set is classed as binding.

A short description of a further data set: Caco-2 permeability. The data set is classed as in vitro ADME. To be noted: human; for recovery at 2 h, 5 μM: Caco-2, Caco-2. (In general: Caco-2 monolayers are a common model of the intestinal barrier.)
The target in data set [2] is T2, EGFRwt (Homo sapiens, UniProt P00533).
T2 construct: purchased Eurofins DiscoverX (contract assay)
In words: KinaseProfiler enzymatic radiometric assay. The data set is classed as biochemical. To be noted: wt, ATP 10 μM; read-out: EGFR IC50.

Data set [3] deals with T3, EGFRL858R (Homo sapiens, UniProt P00533, L858R). In words: KINOMEScan KdELECT Kd determination. Particulars: L858R. The class given is binding. The arrangement: purchased Eurofins DiscoverX (contract assay).
For the next data set, the system named is MDR1. Nature of the data set: MDCKII-MDR1 permeability. The data set is classed as in vitro ADME, canine. Particulars: dog, MDCK-MDR1.
A short description of a further data set: MDCKII-MDR1 permeability. The data set is classed as in vitro ADME, canine. To be noted: dog, MDCK-MDR1, MDCKII-MDR1.
Data set [4] has as its target T2, EGFRwt. Nature of the data set: KINOMEScan KdELECT Kd determination. To be noted: wt; read-out: EGFR Kd. The class given is binding.
For data set [5], the target named is T3, EGFRL858R. In words: KinaseProfiler enzymatic radiometric assay. The class given is biochemical. The arrangement: purchased Eurofins Cerep (KinaseProfiler, contract assay). Particulars: ATP 10 μM, read-out: EGFR IC50.
Data set [6] in a line: Metabolic stability in liver microsomes. The data set is classed as in vitro ADME, human. To be noted: for Remaining Percentage: human LM. A general note: Liver microsomes are a subcellular fraction often used to study metabolism.
Another data set is described as follows: Solubility assay. Particulars: buffer, pH 7.4, aqueous buffer; read-out: Aq. Sol. The class given is physicochemical. As for the experimental part: Solubility was determined by Pharmaron, Inc. and each compound was assessed in duplicate (n = 2) by adding 15 μL of compound stock solution (10 mM in DMSO) into a 96-well plate along with 485 μL of buffer followed by shaking at 25 °C, 1100 rpm for 2 h. Wells were filtered, and samples (5 μL) were taken followed by dilution with an equal volume of DMSO (5 μL) and 490 μL of aqueous solution. Samples were analyzed by LC-MS/MS.

A short description of data set [7]: Metabolic stability in liver microsomes. The data set is classed as in vitro ADME, Sprague-Dawley rat. Particulars: for Remaining Percentage: rat LM.
Data set [8] has as its system NCI-H3255 (EGFR mutation = L858R). Nature of the data set: CellTiter-Glo cell viability assay. The class given is cell-based, human. Particulars: 72 h, unadjusted for FBS.
The nature of data set [9]: Lipophilicity, shake-flask. To be noted: 1-octanol/PBS; 1-octanol and PBS (pH 7.4); read-out: logD7.4. The class given is physicochemical. The protocol: Compound lipophilicity was determined by Pharmaron, Inc. using the shake-flask method with 1-octanol and PBS (pH 7.4). Each compound was assessed in duplicate (n = 2) at 1 μM in a 96-well plate shaken at 25 °C and 2000 rpm for 2 h. Samples were analyzed by liquid chromatography and tandem mass spectrometry (LC-MS/MS).

The test system of data set [10] is NCI-H1975 (EGFR mutation = L858R/T790M). Nature of the data set: CellTiter-Glo cell viability assay. The data set is classed as cell-based, human. Particulars: 72 h, unadjusted for FBS. As for the experimental part:
(§1) The A431, HCC827, SK-BR-3, ZR-75–30, AU565, and Caco-2 cell lines were obtained from ATCC. The NCI-H1975 cell line was obtained from SIBS. The NCI-H3255 cell line was obtained from CoBioer. Engineered Ba/F3 cell lines were obtained from Crown Bioscience. MCKII-MDR1 cells were obtained from The Netherlands Cancer Institute. HEK293 cells were obtained from Invitrogen. A431 cells were cultured in DMEM (Life Technologies) with 10% FBS. HCC827, NCI-H1975, and AU565 cells were cultured in RPMI1640 (Invitrogen) with 10% FBS. NCI-H3255 cells were cultured in BEGM (Lonza) with 10% FBS. Ba/F3 EGFR-del E746_A750/C797S and Ba/F3 EGFR-L858R/C797S cells were cultured in RPMI (Invitrogen) with 10% FBS. SK-BR-3 cells were cultured in McCoy’s 5a (Invitrogen) with 10% FBS. ZR-75-30 cells were cultured in RPMI1640 (Invitrogen) with 20% FBS. Caco-2 and MCKII-MDR1 culture information is given in the Permeability Studies section. HEK293 cells were cultured in DMEM (Gibco) with 10% FBS, 0.1 mM NEAA, 25 mM HEPES, 100 U/mL penicillin-streptomycin, μg/mL blasticidin, and 400 μg/mL Geneticin. All cells were cultured in a humidified incubator with 5% CO2 at 37 °C.
(§2) Viability assays using A431, HCC827, NCI-H1975, NCI-H3255, Ba/F3 EGFR-del E746_A750/C797S, Ba/F3 EGFR-L858R/C797S, AU565, SK-BR-3, and ZR-75-30 cells were performed at Crown BioScience. Cells were plated into 96-well plates at 1500–7000 cells per well and dosed in triplicate (n = 3) in a nine-point, 4-fold dilution series with compounds (0.15 nM to 10 μM) in DMSO and incubated for 72 h. After 72 h, cell viability was assayed by CellTiter-Glo Luminescent Viability Assay (Promega). Dose–response curves were generated and used to calculate the IC50 values which were calculated on GraphPad Prism from the nonlinear regression equation fitted with a sigmoidal dose response and are presented as mean ± SEM.

Data set [11] has as its system SK-BR-3 (HER2-positive breast cancer). In words: CellTiter-Glo cell viability assay. The class given is cell-based, human. To be noted: 72 h, unadjusted for FBS. The protocol: as §1, §2
In data set [12] the test system is AU565 (HER2-positive breast cancer). In words: CellTiter-Glo cell viability assay. The data set is classed as cell-based, human. To be noted: 72 h, unadjusted for FBS. As for the experimental part:
as §1, §2

For data set [13], the system named is A431 cell line (overexpressed EGFRwt). Nature of the data set: CellTiter-Glo cell viability assay. Particulars: 72 h, unadjusted for FBS. The data set is classed as cell-based, human. As for the experimental part:
as §1, §2

Data set [14] deals with ZR-75-30 (HER2-positive breast cancer). Nature of the data set: CellTiter-Glo cell viability assay. The class given is cell-based, human. Particulars: 72 h, unadjusted for FBS. As for the experimental part:
as §1, §2

Data set [15] concerns Ba/F3 EGFR-del E746_A750/C797S cells. In words: CellTiter-Glo cell viability assay. The class given is cell-based. Particulars: 72 h, unadjusted for FBS. As for the experimental part:
as §1, §2

For data set [16], the system named is Ba/F3 EGFR-L858R/C797S cells. Nature of the data set: CellTiter-Glo cell viability assay. The class given is cell-based. To be noted: 72 h, unadjusted for FBS. As for the experimental part: as §1, §2
Details of data set [17]: method as in ref 56−59. To be noted: ref 56−59; cited from earlier work.

Converted amounts (≈) assume the structure as drawn. Read-outs that look alike come from different tables or passages of the source.

T3 sequence (P00533 25-1210 L858R): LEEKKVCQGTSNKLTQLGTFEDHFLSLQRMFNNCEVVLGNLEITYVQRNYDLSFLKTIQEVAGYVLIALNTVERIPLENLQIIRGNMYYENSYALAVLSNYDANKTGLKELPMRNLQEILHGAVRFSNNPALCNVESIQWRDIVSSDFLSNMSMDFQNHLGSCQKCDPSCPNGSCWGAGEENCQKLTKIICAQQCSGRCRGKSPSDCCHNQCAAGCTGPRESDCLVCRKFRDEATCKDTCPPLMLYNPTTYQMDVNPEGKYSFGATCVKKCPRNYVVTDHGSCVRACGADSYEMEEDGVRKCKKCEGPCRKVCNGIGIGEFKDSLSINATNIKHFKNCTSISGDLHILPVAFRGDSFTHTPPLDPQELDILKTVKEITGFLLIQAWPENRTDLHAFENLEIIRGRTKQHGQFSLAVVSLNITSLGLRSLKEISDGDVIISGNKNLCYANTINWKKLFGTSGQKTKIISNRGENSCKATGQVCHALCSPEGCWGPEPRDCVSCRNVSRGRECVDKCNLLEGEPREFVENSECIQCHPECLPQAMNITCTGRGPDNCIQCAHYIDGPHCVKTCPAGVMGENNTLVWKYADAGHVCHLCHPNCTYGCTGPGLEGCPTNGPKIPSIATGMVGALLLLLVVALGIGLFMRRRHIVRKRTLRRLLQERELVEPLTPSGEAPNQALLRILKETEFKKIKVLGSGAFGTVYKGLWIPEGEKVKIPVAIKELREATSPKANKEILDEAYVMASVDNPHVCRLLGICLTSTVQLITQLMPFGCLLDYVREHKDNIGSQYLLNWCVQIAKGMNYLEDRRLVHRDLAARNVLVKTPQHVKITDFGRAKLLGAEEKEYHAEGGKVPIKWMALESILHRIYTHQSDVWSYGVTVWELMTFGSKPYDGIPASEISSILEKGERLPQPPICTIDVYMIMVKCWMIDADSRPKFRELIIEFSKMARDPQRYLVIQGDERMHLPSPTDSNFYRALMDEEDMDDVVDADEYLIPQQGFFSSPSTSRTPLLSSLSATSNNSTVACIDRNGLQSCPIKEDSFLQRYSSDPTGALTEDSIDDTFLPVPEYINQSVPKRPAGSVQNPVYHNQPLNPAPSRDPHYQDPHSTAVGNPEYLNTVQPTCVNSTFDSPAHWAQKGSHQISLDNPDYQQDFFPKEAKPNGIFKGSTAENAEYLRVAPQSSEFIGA
T2 sequence (P00533 25-1210): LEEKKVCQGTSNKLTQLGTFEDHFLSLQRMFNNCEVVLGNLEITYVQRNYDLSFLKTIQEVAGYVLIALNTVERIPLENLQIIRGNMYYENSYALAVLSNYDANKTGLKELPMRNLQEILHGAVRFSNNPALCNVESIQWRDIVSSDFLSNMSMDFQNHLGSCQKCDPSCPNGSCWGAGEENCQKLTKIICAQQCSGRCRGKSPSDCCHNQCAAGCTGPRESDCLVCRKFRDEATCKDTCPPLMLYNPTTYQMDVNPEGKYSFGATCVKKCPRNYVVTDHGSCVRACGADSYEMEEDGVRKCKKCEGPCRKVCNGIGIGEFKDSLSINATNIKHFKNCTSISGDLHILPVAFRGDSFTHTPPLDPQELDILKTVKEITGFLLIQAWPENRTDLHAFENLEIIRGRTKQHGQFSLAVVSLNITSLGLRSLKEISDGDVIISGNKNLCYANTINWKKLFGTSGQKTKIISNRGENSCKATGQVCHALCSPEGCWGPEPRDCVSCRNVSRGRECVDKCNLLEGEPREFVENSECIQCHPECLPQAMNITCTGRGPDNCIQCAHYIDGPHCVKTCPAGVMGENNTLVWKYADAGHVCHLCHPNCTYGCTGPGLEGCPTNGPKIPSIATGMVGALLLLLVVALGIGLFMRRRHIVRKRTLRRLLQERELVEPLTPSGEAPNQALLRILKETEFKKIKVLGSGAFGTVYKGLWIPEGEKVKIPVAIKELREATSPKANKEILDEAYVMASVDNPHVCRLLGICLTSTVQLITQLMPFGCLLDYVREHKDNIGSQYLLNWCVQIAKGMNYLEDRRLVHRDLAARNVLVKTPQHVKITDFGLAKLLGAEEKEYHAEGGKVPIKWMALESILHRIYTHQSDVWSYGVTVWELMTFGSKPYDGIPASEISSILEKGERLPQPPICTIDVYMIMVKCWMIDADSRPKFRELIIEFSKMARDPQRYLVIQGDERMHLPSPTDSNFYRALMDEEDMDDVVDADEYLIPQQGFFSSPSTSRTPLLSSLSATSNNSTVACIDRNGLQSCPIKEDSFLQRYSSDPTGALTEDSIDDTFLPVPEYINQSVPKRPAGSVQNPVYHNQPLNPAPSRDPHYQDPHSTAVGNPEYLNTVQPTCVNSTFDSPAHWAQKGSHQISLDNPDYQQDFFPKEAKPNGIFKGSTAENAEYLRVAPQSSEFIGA
T1 sequence (P00533 with tags, fused parts or gaps DEL746-750): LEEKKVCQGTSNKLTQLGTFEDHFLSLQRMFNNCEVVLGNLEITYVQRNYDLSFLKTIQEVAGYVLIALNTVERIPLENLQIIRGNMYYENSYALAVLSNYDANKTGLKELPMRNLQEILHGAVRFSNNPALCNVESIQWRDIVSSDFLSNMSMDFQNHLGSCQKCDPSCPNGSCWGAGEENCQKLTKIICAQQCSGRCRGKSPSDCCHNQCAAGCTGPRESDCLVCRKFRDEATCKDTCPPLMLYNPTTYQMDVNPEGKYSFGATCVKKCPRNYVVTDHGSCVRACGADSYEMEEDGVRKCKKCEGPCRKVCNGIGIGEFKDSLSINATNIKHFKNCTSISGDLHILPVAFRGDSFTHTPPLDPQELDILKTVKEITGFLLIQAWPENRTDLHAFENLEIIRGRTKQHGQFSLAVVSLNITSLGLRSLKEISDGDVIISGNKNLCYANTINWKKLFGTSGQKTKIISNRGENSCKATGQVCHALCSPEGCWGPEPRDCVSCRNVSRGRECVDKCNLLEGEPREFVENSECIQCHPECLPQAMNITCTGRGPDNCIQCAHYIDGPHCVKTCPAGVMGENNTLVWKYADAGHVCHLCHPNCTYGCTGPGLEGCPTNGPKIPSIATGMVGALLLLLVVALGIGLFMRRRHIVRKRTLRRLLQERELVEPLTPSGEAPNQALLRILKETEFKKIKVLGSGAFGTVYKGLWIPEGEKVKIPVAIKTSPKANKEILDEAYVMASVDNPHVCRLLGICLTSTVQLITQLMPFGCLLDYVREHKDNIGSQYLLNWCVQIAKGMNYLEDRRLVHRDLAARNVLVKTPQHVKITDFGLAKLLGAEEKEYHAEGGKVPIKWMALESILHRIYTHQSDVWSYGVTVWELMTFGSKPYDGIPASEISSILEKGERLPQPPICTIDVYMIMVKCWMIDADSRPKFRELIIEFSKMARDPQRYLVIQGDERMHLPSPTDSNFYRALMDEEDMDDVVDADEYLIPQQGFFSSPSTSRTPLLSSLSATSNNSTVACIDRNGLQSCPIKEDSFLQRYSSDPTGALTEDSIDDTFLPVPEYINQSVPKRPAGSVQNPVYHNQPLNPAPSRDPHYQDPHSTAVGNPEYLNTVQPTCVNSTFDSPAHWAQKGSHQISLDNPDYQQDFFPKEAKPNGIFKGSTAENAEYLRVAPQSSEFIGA

In the case of `COc1cc2ncnc(Nc3ccc(F)c(Cl)c3)c2cc1OCCON1CCN(C)CC1` [Compound 8, N-(3-Chloro-4-fluorophenyl)-7-methoxy-6-(2-((4-methylpiperazin-1-yl)oxy)ethoxy)quinazolin-4-amine], the IC50 in data set [1] (Homo sapiens, HCC827) was 15 nM; on EGFRwt [2] it was 3 nM; at EGFRL858R [5], 2 nM; in data set [8] (Homo sapiens, NCI-H3255), 37 nM. Moreover, the dissociation constant Kd on EGFR del E746_A750 came to 0.4 nM; at EGFRL858R [3] it was 0.6 nM; at EGFRwt [4], 0.8 nM. Moreover, in “Caco-2 permeability” (Caco-2), the efflux ratio at 2 h, 5 µM is 20.2. The efflux ratio at 2 h, 5 μM in the data set “Caco-2 permeability” (Caco-2) came to 19.3. Besides, the recovery at 2 h, 5 μM in the data set “Caco-2 permeability” (read-out: Recovery% (AP-BL)) stood at 63.3%; in the data set “Caco-2 permeability” (read-out: Recovery% (BL-AP)) it was 72.3%. This molecule came in with a Papp A→B at 2 h, 5 µM in the data set “Caco-2 permeability” (Caco-2, 5 μM, 2 h) of 0.6 ×10⁻⁶ cm/s. Moreover, in the data set “Caco-2 permeability” (Caco-2, 5 μM, 2 h), the Papp A→B at 2 h, 5 μM was 0.63 ×10⁻⁶ cm/s. The molecule further displayed a Papp B→A at 2 h, 5 µM in “Caco-2 permeability” (Caco-2, 5 μM, 2 h) of 12.1 ×10⁻⁶ cm/s. Further, the efflux ratio at 2 h, 1 µM with MDR1 was found to be 8.7. The efflux ratio at 2 h, 1 μM in the data set with MDR1 amounted to 8.65. Further, the Papp A→B at 2 h, 1 µM in the data set on MDR1 (1 μM, 2 h) came out at 1.4 ×10⁻⁶ cm/s. The molecule also gave a Papp A→B at 2 h, 1 μM in the data set on MDR1 (1 μM, 2 h) of 1.35 ×10⁻⁶ cm/s. In the data set with MDR1 (1 μM, 2 h), this molecule gave a Papp B→A at 2 h, 1 µM of 11.7 ×10⁻⁶ cm/s. The molecule further yielded a Papp B→A at 2 h, 1 μM with MDR1 (1 μM, 2 h) of 11.7 ×10⁻⁶ cm/s. Also, the recovery at 2 h, 1 μM in “MDCKII-MDR1 permeability” (read-out: Recovery% (AP-BL)) was 58.6%; in “MDCKII-MDR1 permeability” (read-out: Recovery% (BL-AP)), 76.1%. Besides, the “Remaining Percentage” value worked out at 60.04% in [6] (+Cofactors, 15 min); 39.49% in [6] (+Cofactors, 30 min); 24.83% in [6] (+Cofactors, 45 min); 20.34% in data set [6] (+Cofactors, 60 min); 95.02% in [6] (-Cofactors, 60 min); 58.02% in data set [7] (+Cofactors, 15 min). Moreover, the “Remaining Percentage” value in data set [7] (+Cofactors, 30 min) is reported as 32.28%; in data set [7] (+Cofactors, 45 min), 22.82%; in data set [7] (+Cofactors, 60 min), 15.90%; in data set [7] (-Cofactors, 60 min), 97.68%. The half-life at 1 h, 1 µM came out at 25.4 min in data set [6] (human, liver microsomes, read-out: LM t1/2) and 22.4 min in [7] (Sprague-Dawley, rat, liver microsomes, read-out: LM t1/2). The microsomal CLint at 1 h, 1 µM in data set [6] (human, liver microsomes, read-out: LMClint) came to 55 µL/min/mg; in [7] (Sprague-Dawley, rat, liver microsomes, read-out: LMClint), 62 µL/min/mg. In addition, the solubility kinetic at 2 h in “Solubility assay” is 18 µM (≈ 8.31 µg/mL). Moreover, the logD at 2 h, 1 µM in [9] came to 3.3.
As for `N.N.[Cl][Pt][Cl]` [Cisplatin, reference compound], the IC50 in data set [1] was above 10000 nM; in data set [10] it was 8.8 µM; in [11] it was 1960 nM; in data set [12] it was 2570 nM; in [13] it was 4.15 µM; in data set [14] it was 4.18 µM. Also, the IC50 in data set [8] is above 10000 nM; in [15] it was 361 ± 15 nM; in data set [16] it was 411 ± 10 nM.
Consider `COc1cc2ncnc(Nc3cccc(Cl)c3F)c2cc1OC(=O)N1CCN(C)C[C@H]1C` [AZD3759], for which the “Kp,uu brain (AUC0-7h)” value in data set [17] is 1.3.
For the molecule `Fc1c(Br)cccc1Nc1ncnc2cc3c(cc12)OCCO3` [JCN037], in data set [17], the “Kp,uu brain (AUC0-7h)” value is 1.3.

For orientation: IC50 means the concentration that inhibits the measured activity by half. A word on the Kd: it is the free concentration of one partner at which half of the binding sites on the other are occupied at equilibrium, for simple one-to-one binding. A word on the efflux ratio: it is a quotient of directional permeabilities that is used to spot active efflux. What is called Papp A→B is how fast a substance crosses the layer from the apical side. Broadly, the Papp B→A is the apparent permeability from the basolateral to the apical side of a cell layer.
